# Reference: US12648927B2, “Compositions and methods of enhancing immunotherapies” (Cha Therapeutics, Inc., priority 2018, dated 2026)
# Columns and labels:
# HLA-DRB5 (MHC II) = experiment: IFN stimulated gene expression by qRT-PCR (HLA-DRB5), TNBC human xenograft tumors; assay type: in vivo; conditions: single components vs combination
# Description: It was tested in 6 treated and 5 untreated tumors. *P<0.05, **P<0.01, ***P<0.005, ****P<0.001. Data represented as mean±SEM.
# PDL-1 = PDL-1 gene expression by qRT-PCR, human MDA-MB-231 xenograft tumors; assay type: in vivo; conditions: human tumors in immune compromised mice, 4-5 mice each group
# Source text: Data represented as mean±SEM.
SMILES,HLA-DRB5 (MHC II) gene expression (HLA-DRB5 (MHC II)),"relative gene expression of PDL-1, increase (PDL-1) [fold]"
"Nc1ncn([C@H]2C[C@H](O)[C@@H](CO)O2)c(=O)n1 [DAC, decitabine]",no significant effect,2
"O=C(O[C@@H]1Cc2c(O)cc(O)cc2O[C@@H]1c1cc(O)c(O)c(O)c1)c1cc(O)c(O)c(O)c1 [EGCG, epigallocatechin gallate]",no significant effect,–
